Patent US8569344B2, “N-piperidinyl acetamide derivatives as calcium channel blockers” (Zalicus Pharmaceuticals Ltd., priority 2008, dated 2013)
Like-named read-outs stand apart in the source and are kept apart here.

What was measured:
[1] = target: T1, human α1G T-type channels (Homo sapiens, UniProt O43497); test: T-type calcium channel block, whole cell patch clamp in HEK cells (α1G); format: cell-based
T1 construct: expressed in transfected cells; host or cells: HEK 293

[2] = target: T2, human α1H T-type channels (Homo sapiens, UniProt O95180); test: T-type calcium channel block, whole cell patch clamp in HEK cells (α1H); format: cell-based
T2 construct: expressed in transfected cells; host or cells: HEK 293

[3] = HEK cells, patch clamp, mainly non-inactivated protocol, values above 10 μM shown as 10 μM, below 0.30 μM shown as 0.30 μM, read-out: T-type Calcium Channel Block α1G IC50
[4] = HEK cells, patch clamp, mainly non-inactivated protocol, values above 10 μM shown as 10 μM, read-out: T-type Calcium Channel Block α1H IC50

T2 sequence (O95180 whole entry): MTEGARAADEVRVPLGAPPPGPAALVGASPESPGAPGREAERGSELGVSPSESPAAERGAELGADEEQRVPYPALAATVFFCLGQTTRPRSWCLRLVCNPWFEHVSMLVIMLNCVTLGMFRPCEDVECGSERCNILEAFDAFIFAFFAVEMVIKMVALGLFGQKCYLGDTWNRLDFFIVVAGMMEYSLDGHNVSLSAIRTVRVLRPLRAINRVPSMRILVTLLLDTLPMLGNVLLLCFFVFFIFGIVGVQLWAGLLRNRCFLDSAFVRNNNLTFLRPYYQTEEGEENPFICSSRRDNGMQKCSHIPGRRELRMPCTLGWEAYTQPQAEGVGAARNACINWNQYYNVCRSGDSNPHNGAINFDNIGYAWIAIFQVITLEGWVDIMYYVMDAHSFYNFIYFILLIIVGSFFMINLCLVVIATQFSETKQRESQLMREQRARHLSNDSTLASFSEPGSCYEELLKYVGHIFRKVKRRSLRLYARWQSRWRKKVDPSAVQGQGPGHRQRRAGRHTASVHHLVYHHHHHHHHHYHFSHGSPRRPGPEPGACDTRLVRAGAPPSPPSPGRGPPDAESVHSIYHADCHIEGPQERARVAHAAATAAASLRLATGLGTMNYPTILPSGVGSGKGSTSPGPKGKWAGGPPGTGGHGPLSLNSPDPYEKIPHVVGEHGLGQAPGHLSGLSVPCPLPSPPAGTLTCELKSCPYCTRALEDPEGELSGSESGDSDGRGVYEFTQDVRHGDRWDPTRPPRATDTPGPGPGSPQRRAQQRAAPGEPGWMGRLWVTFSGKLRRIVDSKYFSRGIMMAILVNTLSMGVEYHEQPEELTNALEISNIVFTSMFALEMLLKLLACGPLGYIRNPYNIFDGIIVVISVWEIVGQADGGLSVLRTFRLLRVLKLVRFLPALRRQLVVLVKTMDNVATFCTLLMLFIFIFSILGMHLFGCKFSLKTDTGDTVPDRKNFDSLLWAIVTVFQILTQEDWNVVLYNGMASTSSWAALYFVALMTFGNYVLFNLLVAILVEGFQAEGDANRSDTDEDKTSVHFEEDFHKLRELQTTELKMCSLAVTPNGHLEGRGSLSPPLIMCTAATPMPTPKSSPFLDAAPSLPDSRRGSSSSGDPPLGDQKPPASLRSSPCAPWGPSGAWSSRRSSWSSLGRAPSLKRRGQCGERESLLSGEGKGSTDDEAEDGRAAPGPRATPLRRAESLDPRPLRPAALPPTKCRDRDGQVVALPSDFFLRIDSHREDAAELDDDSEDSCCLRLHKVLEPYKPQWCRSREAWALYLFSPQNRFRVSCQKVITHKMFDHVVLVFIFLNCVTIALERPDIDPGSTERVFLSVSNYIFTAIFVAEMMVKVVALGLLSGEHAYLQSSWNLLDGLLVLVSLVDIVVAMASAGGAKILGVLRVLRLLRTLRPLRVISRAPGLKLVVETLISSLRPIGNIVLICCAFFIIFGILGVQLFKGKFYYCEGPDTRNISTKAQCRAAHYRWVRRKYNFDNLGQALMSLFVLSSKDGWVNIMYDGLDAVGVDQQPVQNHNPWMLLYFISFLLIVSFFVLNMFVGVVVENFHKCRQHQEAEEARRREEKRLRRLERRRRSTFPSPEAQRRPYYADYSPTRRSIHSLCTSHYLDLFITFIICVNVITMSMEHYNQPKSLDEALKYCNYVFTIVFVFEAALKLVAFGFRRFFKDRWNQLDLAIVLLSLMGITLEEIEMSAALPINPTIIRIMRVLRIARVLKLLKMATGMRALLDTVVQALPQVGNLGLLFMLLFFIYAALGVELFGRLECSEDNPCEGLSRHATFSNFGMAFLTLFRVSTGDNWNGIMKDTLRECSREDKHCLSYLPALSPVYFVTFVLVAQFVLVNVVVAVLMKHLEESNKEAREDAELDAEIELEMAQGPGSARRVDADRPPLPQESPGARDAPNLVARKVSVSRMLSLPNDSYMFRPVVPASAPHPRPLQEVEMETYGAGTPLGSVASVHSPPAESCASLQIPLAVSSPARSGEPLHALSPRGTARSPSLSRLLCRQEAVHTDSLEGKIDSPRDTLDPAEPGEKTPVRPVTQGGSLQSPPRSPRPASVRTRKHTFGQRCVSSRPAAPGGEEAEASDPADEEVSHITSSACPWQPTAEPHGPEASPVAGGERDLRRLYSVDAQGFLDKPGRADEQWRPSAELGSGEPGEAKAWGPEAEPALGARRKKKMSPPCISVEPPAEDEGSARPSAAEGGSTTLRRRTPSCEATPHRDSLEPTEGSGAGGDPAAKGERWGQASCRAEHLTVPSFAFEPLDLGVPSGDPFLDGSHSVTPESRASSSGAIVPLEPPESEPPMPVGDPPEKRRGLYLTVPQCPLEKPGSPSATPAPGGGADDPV
T1 sequence (O43497 whole entry): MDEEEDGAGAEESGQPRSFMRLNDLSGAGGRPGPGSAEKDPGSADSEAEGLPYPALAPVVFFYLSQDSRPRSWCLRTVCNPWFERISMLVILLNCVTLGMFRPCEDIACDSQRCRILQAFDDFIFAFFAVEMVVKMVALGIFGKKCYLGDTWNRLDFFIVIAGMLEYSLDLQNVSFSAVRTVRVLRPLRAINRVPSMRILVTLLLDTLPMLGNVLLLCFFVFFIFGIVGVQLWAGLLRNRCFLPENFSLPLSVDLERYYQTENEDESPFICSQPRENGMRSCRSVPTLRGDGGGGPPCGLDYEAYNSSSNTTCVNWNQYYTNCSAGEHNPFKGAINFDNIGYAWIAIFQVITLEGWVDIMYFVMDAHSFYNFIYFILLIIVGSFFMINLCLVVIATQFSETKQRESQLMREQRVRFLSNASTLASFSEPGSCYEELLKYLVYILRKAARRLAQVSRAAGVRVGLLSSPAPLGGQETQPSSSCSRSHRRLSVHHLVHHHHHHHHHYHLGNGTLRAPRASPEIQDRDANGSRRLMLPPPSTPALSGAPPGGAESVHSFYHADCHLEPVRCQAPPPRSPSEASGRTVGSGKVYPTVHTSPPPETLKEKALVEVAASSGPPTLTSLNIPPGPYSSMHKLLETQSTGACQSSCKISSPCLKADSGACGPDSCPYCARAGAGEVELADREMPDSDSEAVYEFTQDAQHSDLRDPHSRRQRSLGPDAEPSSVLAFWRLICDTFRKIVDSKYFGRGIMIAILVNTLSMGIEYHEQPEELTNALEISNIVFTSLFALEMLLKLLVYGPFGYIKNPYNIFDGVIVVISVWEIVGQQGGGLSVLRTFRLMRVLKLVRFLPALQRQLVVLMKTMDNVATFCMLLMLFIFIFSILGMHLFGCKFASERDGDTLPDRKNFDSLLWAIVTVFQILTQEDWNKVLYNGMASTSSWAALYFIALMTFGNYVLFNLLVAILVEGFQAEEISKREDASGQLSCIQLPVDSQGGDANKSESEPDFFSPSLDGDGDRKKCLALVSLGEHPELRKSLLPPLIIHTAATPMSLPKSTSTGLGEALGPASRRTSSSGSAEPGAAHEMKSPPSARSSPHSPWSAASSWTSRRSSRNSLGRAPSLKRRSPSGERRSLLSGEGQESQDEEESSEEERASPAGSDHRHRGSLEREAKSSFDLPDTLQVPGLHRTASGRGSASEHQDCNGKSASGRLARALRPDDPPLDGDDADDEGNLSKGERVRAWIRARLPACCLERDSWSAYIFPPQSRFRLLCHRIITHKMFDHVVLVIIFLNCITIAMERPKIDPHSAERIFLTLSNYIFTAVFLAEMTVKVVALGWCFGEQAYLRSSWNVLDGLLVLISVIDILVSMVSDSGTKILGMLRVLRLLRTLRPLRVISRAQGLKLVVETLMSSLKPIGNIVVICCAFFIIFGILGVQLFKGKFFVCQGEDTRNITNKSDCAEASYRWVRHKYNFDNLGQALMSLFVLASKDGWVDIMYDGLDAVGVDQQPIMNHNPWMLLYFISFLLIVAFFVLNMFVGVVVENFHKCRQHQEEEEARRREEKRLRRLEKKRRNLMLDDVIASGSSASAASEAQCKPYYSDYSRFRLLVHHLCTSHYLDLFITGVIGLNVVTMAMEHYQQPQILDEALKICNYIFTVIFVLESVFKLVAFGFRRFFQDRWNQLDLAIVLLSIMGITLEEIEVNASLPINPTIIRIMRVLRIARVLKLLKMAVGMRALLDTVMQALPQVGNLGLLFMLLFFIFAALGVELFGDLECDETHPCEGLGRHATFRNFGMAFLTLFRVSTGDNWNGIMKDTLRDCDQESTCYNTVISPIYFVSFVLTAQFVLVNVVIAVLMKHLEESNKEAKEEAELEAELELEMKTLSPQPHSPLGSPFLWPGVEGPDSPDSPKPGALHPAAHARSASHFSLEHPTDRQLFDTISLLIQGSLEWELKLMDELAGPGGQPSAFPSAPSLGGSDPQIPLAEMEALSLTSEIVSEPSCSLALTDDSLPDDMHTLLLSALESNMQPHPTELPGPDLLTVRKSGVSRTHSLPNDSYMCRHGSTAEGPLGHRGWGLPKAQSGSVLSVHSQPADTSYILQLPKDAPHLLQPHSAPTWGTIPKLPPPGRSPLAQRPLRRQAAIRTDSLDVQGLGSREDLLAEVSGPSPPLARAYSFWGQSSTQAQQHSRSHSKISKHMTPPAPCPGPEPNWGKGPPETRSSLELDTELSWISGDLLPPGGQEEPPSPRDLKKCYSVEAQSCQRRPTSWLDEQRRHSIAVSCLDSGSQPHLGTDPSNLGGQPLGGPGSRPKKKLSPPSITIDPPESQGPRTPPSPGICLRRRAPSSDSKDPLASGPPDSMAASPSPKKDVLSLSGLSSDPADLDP

SMILES | IC50 [1, 3] [nM] | IC50 [2, 4] [nM] | IC50 [1] [nM] | IC50 [2] [nM]
CC1(NC(=O)CN2CCC(CNC(=O)c3ccc(F)cc3)CC2)CCC1 [Compound 529, 4-fluoro-N-((1-(2-(1-methylcyclobutyl-amino)-2-oxoethyl)piperidin-4-yl)methyl)benzamide] | 5440 | 2510 |  | 
O=C(NC1CCCCC1)OCCN1CCC(CNC(=O)c2cc(F)cc(C(F)(F)F)c2)CC1 [Compound 530, 2-(4-((3-fluoro-5-(trifluoromethyl)benzamido)methyl)piperidin-1-yl)ethyl cyclohexylcarbamate] | 590 | 860 |  | 
COc1cc(F)cc(C(=O)NCC2CCN(CC(=O)NC3CCCC3)CC2)c1 [Compound 532, N-((1-(2-(cyclopentylamino)-2-oxoethyl)piperidin-4-yl)methyl)-3-fluoro-5-methoxybenzamide] | < 300 | 130 |  | 
Cc1cc(F)cc(C(=O)NCC2CCN(CC(=O)NC3CCCC3)CC2)c1 [Compound 533, N-((1-(2-(cyclopentylamino)-2-oxoethyl)piperidin-4-yl)methyl)-3-fluoro-5-methylbenzamide] | 430 | 400 |  | 
O=C(CN1CCC(CNC(=O)c2cccc(Cl)c2)CC1)NC1CCCC1 [Compound 534, 3-chloro-N-((1-(2-(cyclopentylamino)-2-oxoethyl)piperidin-4-yl)methyl) benzamide] | 380 | 420 |  | 
O=C(CN1CCC(CNC(=O)c2cccc(F)c2)CC1)NC1CCCC1 [Compound 535, N-((1-(2-(cyclopentylamino)-2-oxoethyl)piperidin-4-yl)methyl)-3-fluorobenzamide] | 3620 | 2140 |  | 
O=C(CN1CCC(CNC(=O)c2cccc(OC(F)(F)F)c2)CC1)NC1CCCC1 [Compound 536, N-((1-(2-(cyclopentylamino)-2-oxoethyl)piperidin-4-yl)methyl)-3-(trifluoromethoxy)benzamide] | < 300 | 120 |  | 
Cc1cc(C)cc(C(=O)NCC2CCN(CC(=O)N(C)C(C)(C)C)CC2)c1 [Compound 539, N-((1-(2-(tert-butyl(methyl)amino)-2-oxoethyl)piperidin-4-yl)methyl)-3,5-dimethylbenzamide] | 1680 | 510 |  | 
Cc1cc(F)cc(C(=O)NCC2CCN(CC(=O)N(C)C(C)(C)C)CC2)c1 [Compound 540, N-((1-(2-(tert-butyl(methyl)amino)-2-oxoethyl)piperidin-4-yl)methyl)-3-fluoro-5-methylbenzamide] | 1400 | 550 |  | 
CC(C(=O)NC(C)(C)C)N1CCC(CNC(=O)c2cc(F)cc(Cl)c2)CC1 (stereo not shown) [Compound 546, N-((1-(1-(tert-butylamino)-1-oxo-propan-2-yl)piperidin-4-yl)methyl)-3-chloro-5-fluorobenzamide] | < 300 | 130 |  | 
CC(C(=O)NC(C)(C)C(F)(F)F)N1CCC(CNC(=O)c2cc(F)cc(Cl)c2)CC1 (stereo not shown) [Compound 547, 3-chloro-5-fluoro-N-((1-(1-oxo-1-(1,1,1-trifluoro-2-methylpropan-2-ylamino)propan-2-yl)piperidin-4-yl)methyl)benzamide] | < 300 | 30 |  | 
CC(C(=O)N1CCC[C@H]1C(F)(F)F)N1CCC(CNC(=O)c2cc(F)cc(Cl)c2)CC1 (stereo partly drawn) [Compound 548, 3-chloro-5-fluoro-N-((1-(1-oxo-1-((S)-2-(trifluoromethyl)pyrrolidin-1-yl)propan-2-yl)piperidin-4-yl)methyl)benzamide] | < 300 | 160 |  | 
CC(C(=O)NC1CCCC1)N1CCC(CNC(=O)c2cc(F)cc(Cl)c2)CC1 (stereo not shown) [Compound 549, 3-chloro-N-((1-(1-(cyclopentylamino)-1-oxopropan-2-yl)piperidin-4-yl)methyl)-5-fluorobenzamide] | < 300 | 110 |  | 
CC.CC(F)CNC(=O)CN1CCC(CNC(=O)c2cc(F)cc(Cl)c2)CC1 (stereo not shown) [Compound 553, 3-chloro-5-fluoro-N-((1-(2-(2-fluoropropylamino)-2-oxoethyl)piperidin-4-yl)methyl)benzamide compound with ethane (1:1)] |  |  | 2520 | 1730
CC(C)(C)ONC(=O)CN1CCC(CNC(=O)c2cc(C(F)(F)F)cc(C(F)(F)F)c2)CC1 [Compound 560, N-((1-(2-(tert-butoxyamino)-2-oxoethyl)piperidin-4-yl)methyl)-3,5-bis(trifluoromethyl)benzamide] | 470 | 590 |  | 

Continued, in another order:

IC50 [1, 3] [nM] | IC50 [2, 4] [nM] | SMILES | IC50 [1] [nM] | IC50 [2] [nM]
< 300 | 20 | CC(C(=O)NC1(C)CCCCC1)N1CCC(CNC(=O)c2cc(F)cc(Cl)c2)CC1 (stereo not shown) [Compound 550, 3-chloro-5-fluoro-N-((1-(1-(1-methylcyclohexylamino)-1-oxopropan-2-yl)piperidin-4-yl)methyl)benzamide] |  | 
370 | 140 | COCC(C)(C)NC(=O)C(C)N1CCC(CNC(=O)c2cc(F)cc(Cl)c2)CC1 (stereo not shown) [Compound 551, 3-chloro-5-fluoro-N-((1-(1-(1-methoxy-2-methylpropan-2-ylamino)-1-oxopropan-2-yl)piperidin-4-yl)methyl)benzamide] |  | 
> 10000 | > 10000 | CC(C)(F)CNC(=O)CN1CCC(CNC(=O)c2cccc(Cl)c2)CC1 [Compound 554, 3-chloro-N-((1-(2-(2-fluoro-2-methylpropylamino)-2-oxoethyl)piperidin-4-yl)methyl)benzamide] |  | 
530 | 890 | CC(C)(F)CNC(=O)CN1CCC(CNC(=O)c2cc(C(F)(F)F)cc(C(F)(F)F)c2)CC1 [Compound 555, N-((1-(2-(2-fluoro-2-methylpropyl-amino)-2-oxoethyl)piperidin-4-yl)methyl)-3,5-bis(trifluoromethyl) benzamide] |  | 
1370 | 1770 | CC(C)(F)CNC(=O)CN1CCC(CNC(=O)c2cc(F)cc(C(F)(F)F)c2)CC1 [Compound 556, 3-fluoro-N-((1-(2-(2-fluoro-2-methylpropylamino)-2-oxoethyl)piperidin-4-yl)methyl)-5-(trifluoromethyl)benzamide] |  | 
3580 | 1310 | COc1cc(F)cc(C(=O)NCC2CCN(CC(=O)NCC(C)(C)F)CC2)c1 [Compound 557, 3-fluoro-N-((1-(2-(2-fluoro-2-methylpropylamino)-2-oxoethyl)piperidin-4-yl)methyl)-5-methoxy-benzamide] |  | 
< 300 | 460 | CC(C(=O)N1CCC[C@@H]1C(F)(F)F)N1CCC(CNC(=O)c2cc(F)cc(Cl)c2)CC1 (stereo partly drawn) [Compound 558, 3-chloro-5-fluoro-N-((1-(1-oxo-1-((R)-2-(trifluoromethyl)pyrrolidin-1-yl)propan-2-yl)piperidin-4-yl)methyl) benzamide] |  | 
9060 | > 10000 | CC(C(=O)N1CCSC1)N1CCC(CNC(=O)c2cc(F)cc(Cl)c2)CC1 (stereo not shown) [Compound 559, 3-chloro-5-fluoro-N-((1-(1-oxo-1-(thiazolidin-3-yl)propan-2-yl)piperidin-4-yl)methyl)benzamide] |  | 
< 300 | 270 | O=C(CN1CCC(CNC(=O)c2cc(F)cc(C(F)(F)F)c2)CC1)NC1(C2CCOCC2)CC1 [Compound 561, 3-fluoro-N-((1-(2-oxo-2-(1-(tetrahydro-2H-pyran-4-yl)cyclopropylamino)ethyl)piperidin-4-yl)methyl)-5-(trifluoromethyl) benzamide] |  | 
400 | 660 | COc1cc(F)cc(C(=O)NCC2CCN(CC(=O)NC3(C4CCOCC4)CC3)CC2)c1 [Compound 562, 3-fluoro-5-methoxy-N-((1-(2-oxo-2-(1-(tetrahydro-2H-pyran-4-yl)cyclopropylamino)ethyl)piperidin-4-yl)methyl)benzamide] |  | 
< 300 | 310 | O=C(CN1CCC(CNC(=O)c2cc(F)cc(Cl)c2)CC1)NC1(C2CCOCC2)CC1 [Compound 563, 3-chloro-5-fluoro-N-((1-(2-oxo-2-(1-(tetrahydro-2H-pyran-4-yl)cyclopropylamino)ethyl)piperidin-4-yl)methyl)benzamide] |  | 
< 300 | 100 | COCC(C)(C)NC(=O)CN1CCC(CNC(=O)c2cc(F)cc(C(F)(F)F)c2)CC1 [Compound 564, 3-fluoro-N-((1-(2-(1-methoxy-2-methylpropan-2-ylamino)-2-oxoethyl)piperidin-4-yl)methyl)-5-(trifluoromethyl)benzamide] |  | 
310 | 220 | CC(C)(C)S(=O)(=O)NCCN1CCC(CNC(=O)c2cc(F)cc(Cl)c2)CC1 [Compound 565, 3-chloro-N-((1-(2-(1,1-dimethylethylsulfonamido)ethyl)piperidin-4-yl)methyl)-5-fluoro-benzamide] |  | 
760 | 820 | COCC(C)(C)NC(=O)CN1CCC(CNC(=O)c2cccc(Cl)c2)CC1 [Compound 566, 3-chloro-N-((1-(2-(1-methoxy-2-methylpropan-2-ylamino)-2-oxoethyl)piperidin-4-yl)methyl) benzamide] |  | 
1360 | 890 | O=C(NCC1CCN(CCN2C(=O)NC3(CCCCC3)C2=O)CC1)c1cc(F)cc(C(F)(F)F)c1 [Compound 568, N-((1-(2-(2,4-dioxo-1,3-diazaspiro[4.5]decan-3-yl)ethyl)piperidin-4-yl)methyl)-3-fluoro-5-(trifluoromethyl)benzamide] |  | 
2060 | 2360 | NC1(C(=O)NCCN2CCC(CNC(=O)c3cc(F)cc(C(F)(F)F)c3)CC2)CCCCC1 [Compound 570, N-((1-(2-(1-aminocyclohexanecarboxamido)ethyl)piperidin-4-yl)methyl)-3-fluoro-5-(trifluoromethyl)benzamide] |  | 
> 10000 | > 10000 | NC1(C(=O)NCCN2CCC(CNC(=O)c3cc(F)cc(C(F)(F)F)c3)CC2)CCC1 [Compound 571, N-((1-(2-(1-aminocyclobutanecarboxamido)ethyl)piperidin-4-yl)methyl)-3-fluoro-5-(trifluoromethyl) benzazmide] |  | 
